Measured values from ChEMBL document CHEMBL5653615 (J Biol Chem, 2013).

Key:
[1] = biological target: Macrophage colony-stimulating factor 1 receptor (Homo sapiens) (UniProt P07333); experiment: Inhibition of human FMS at 18.6 nM by HotSpot assay relative to control
[2] = biological target: Tyrosine-protein kinase Fyn (Homo sapiens) (UniProt P06241); experiment: Inhibition of human FYN at 1.82 nM by HotSpot assay relative to control
[3] = biological target: Dual specificity protein kinase CLK4 (Homo sapiens) (UniProt Q9HAZ1); conditions: dose 1.82 nM
Description: Inhibition of human CLK4 at 1.82 nM by HotSpot assay relative to control

[4] = biological target: Mitogen-activated protein kinase 11 (Homo sapiens) (UniProt Q15759); experiment: Inhibition of human MAPK11 at 1.82 nM by HotSpot assay relative to control
[5] = biological target: T1, Serine/threonine-protein kinase BRSK2 (Homo sapiens) (UniProt Q8IWQ3); experiment: Inhibition of human BRSK2 at 1.82 nM by HotSpot assay relative to control
T1 sequence (whole entry): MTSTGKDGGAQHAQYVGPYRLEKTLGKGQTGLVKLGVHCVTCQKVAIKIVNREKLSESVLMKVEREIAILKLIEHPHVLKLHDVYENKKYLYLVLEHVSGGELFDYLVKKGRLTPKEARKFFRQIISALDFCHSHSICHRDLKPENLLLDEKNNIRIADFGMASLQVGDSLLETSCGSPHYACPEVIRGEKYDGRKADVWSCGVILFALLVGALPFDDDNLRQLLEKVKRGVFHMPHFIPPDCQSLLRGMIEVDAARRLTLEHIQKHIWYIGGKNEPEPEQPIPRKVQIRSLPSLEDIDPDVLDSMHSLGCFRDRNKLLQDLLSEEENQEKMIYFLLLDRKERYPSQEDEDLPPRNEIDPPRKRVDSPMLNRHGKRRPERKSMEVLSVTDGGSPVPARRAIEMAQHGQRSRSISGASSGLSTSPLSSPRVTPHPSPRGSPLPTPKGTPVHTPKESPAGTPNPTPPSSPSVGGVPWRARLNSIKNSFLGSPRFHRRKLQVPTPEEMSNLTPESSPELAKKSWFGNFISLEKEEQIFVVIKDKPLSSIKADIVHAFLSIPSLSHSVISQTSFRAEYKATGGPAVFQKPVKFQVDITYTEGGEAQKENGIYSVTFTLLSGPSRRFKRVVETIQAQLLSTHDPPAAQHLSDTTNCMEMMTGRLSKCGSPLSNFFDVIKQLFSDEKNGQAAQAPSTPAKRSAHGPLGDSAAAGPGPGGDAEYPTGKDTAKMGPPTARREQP

[6] = biological target: T2, Aurora kinase A (Homo sapiens) (UniProt O14965); experiment: Inhibition of human Aurora A at 1.82 nM by HotSpot assay relative to control
T2 sequence (whole entry): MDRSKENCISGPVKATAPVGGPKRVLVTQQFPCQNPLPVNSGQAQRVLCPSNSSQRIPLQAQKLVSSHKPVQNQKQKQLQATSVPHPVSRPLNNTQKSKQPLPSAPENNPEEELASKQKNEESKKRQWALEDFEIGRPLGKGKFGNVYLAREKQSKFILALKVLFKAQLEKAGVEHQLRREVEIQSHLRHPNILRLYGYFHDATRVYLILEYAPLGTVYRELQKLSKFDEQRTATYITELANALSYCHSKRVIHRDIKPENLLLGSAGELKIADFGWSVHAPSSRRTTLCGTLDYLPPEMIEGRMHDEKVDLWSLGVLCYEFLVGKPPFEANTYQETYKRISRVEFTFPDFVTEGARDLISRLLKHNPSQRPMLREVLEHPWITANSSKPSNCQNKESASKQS

[7] = biological target: T3, Serine/threonine-protein kinase ULK1 (Homo sapiens) (UniProt O75385); experiment: Inhibition of human ULK1 at 1.82 nM by HotSpot assay relative to control
T3 sequence (whole entry): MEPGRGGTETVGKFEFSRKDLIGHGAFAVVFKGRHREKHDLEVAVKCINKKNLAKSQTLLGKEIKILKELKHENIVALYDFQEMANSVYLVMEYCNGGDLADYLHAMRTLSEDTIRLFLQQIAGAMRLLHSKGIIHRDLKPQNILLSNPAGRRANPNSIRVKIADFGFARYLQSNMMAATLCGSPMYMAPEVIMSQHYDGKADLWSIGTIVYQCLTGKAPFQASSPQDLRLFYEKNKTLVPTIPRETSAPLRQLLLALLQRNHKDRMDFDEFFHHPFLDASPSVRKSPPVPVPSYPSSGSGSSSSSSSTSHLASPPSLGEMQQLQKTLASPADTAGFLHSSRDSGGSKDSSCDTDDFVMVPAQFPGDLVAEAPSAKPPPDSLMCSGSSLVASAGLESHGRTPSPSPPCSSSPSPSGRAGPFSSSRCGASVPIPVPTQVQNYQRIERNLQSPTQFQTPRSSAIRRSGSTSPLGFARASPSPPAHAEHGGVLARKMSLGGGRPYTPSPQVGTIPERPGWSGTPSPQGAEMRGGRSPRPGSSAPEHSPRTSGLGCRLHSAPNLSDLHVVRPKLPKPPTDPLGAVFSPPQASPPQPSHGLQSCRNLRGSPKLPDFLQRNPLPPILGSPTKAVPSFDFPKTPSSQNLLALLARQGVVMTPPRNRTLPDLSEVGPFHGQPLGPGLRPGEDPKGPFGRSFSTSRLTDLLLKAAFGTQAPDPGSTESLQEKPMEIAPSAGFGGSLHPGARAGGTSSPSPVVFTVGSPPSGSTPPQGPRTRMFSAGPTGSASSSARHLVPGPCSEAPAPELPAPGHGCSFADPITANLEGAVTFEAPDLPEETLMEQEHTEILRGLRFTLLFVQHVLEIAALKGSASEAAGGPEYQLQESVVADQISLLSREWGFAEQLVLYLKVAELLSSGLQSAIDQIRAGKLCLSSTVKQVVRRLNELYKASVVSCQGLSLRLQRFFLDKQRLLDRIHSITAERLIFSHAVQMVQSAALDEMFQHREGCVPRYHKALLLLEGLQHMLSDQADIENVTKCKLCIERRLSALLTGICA

[8] = biological target: Platelet-derived growth factor receptor beta (Homo sapiens) (UniProt P09619); experiment: Inhibition of human PDGFRb at 1.82 nM by HotSpot assay relative to control
Sequence of Platelet-derived growth factor receptor beta (Homo sapiens) (P09619 whole entry): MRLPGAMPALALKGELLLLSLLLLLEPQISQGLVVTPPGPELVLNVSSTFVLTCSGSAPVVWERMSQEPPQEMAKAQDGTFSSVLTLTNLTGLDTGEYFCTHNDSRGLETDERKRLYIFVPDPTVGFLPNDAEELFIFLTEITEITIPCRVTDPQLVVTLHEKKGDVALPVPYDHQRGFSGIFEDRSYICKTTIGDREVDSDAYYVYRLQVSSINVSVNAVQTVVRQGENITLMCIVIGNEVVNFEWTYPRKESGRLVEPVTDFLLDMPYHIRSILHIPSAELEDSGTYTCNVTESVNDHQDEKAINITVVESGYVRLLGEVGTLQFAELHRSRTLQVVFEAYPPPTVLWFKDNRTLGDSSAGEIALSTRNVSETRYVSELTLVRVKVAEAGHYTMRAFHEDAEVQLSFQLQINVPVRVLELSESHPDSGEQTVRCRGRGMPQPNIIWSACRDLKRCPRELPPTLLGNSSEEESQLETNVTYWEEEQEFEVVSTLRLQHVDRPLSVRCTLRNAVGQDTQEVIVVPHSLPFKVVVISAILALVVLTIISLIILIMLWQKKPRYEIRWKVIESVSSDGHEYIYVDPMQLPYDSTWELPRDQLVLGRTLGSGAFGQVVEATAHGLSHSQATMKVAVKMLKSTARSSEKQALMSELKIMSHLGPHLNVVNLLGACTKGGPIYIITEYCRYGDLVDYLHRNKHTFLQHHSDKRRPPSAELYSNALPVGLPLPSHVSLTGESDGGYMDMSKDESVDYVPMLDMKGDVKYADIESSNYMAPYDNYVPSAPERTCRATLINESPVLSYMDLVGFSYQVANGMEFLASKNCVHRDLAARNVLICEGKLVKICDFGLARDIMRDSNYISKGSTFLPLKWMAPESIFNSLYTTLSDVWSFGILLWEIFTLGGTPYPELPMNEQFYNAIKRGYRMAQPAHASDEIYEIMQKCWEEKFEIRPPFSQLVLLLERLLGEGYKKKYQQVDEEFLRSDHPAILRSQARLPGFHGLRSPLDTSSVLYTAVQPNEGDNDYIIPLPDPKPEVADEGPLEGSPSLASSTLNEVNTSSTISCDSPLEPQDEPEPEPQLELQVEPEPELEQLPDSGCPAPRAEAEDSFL

Sequence of Mitogen-activated protein kinase 11 (Homo sapiens) (Q15759 whole entry): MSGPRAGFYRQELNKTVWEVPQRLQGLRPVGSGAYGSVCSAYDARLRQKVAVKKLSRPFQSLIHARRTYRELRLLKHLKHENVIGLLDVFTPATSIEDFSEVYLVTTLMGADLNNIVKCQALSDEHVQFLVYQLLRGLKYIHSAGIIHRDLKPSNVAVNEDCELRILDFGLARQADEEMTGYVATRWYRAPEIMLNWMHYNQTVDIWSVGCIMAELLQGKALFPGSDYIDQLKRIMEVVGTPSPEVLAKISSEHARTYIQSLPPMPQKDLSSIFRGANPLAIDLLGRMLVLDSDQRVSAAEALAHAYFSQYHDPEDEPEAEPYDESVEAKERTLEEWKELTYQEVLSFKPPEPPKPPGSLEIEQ
Sequence of Dual specificity protein kinase CLK4 (Homo sapiens) (Q9HAZ1 whole entry, looked up): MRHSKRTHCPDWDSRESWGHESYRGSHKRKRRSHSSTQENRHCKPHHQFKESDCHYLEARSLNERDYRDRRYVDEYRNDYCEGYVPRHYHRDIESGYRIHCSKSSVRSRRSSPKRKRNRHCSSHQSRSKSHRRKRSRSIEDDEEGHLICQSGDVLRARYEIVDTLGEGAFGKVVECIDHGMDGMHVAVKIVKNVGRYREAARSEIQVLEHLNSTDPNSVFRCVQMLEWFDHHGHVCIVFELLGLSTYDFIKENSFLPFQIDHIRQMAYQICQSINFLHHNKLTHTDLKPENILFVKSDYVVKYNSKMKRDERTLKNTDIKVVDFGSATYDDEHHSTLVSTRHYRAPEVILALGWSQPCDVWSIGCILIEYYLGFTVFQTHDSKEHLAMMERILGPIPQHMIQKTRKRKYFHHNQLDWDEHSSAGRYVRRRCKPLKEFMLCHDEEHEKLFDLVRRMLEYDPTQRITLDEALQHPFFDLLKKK
Sequence of Macrophage colony-stimulating factor 1 receptor (Homo sapiens) (P07333 whole entry): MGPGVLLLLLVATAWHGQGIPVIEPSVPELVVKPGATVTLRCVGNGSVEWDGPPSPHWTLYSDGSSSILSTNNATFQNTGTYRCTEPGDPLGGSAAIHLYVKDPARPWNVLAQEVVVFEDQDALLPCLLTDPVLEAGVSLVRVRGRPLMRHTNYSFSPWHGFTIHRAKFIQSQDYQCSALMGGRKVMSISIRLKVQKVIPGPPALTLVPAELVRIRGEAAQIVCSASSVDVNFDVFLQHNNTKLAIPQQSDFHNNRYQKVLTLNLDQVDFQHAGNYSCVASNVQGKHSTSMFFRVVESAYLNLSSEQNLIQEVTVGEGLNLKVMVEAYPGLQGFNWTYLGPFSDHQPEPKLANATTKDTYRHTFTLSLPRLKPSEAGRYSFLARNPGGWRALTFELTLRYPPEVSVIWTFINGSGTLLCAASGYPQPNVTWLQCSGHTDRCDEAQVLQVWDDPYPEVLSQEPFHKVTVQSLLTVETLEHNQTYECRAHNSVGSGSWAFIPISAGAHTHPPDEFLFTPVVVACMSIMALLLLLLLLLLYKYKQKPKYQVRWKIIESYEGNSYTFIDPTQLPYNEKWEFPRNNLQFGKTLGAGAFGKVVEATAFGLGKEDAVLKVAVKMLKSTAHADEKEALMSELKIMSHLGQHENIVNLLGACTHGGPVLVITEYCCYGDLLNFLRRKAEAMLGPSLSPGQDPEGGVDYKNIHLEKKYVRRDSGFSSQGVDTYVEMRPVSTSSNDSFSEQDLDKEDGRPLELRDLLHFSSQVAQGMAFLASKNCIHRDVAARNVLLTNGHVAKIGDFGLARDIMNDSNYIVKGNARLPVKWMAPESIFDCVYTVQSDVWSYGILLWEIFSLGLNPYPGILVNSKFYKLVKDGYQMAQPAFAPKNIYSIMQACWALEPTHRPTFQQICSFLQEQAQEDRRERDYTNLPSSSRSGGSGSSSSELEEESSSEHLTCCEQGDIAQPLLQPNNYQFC
Sequence of Tyrosine-protein kinase Fyn (Homo sapiens) (P06241 2-537 limits assumed): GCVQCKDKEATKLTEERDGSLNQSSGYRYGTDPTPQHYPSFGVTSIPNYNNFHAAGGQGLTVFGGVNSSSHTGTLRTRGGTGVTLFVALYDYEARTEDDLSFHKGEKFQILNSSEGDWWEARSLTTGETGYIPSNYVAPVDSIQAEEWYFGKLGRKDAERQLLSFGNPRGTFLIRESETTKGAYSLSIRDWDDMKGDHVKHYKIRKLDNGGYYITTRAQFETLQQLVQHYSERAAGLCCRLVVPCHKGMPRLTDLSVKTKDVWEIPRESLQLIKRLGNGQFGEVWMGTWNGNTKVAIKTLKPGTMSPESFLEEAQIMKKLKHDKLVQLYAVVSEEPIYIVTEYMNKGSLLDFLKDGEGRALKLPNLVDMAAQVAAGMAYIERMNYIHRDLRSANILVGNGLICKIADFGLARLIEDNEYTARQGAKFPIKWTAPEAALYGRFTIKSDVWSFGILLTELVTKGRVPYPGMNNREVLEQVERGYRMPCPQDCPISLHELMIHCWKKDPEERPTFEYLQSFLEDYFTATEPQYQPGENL

inhibition [1] [%]	inhibition [2] [%]	inhibition [3] [%]	inhibition [4] [%]	inhibition [5] [%]	inhibition [6] [%]	inhibition [7] [%]	inhibition [8] [%]	SMILES
5.25								C[C@]1(O)C[C@@H](c2nc(-c3ccc4ccc(-c5ccccc5)nc4c3)c3c(N)nccn32)C1
	-6.23	-10	-1.71	-3.06	30	0.76	10.8	C[C@@]1(C(=O)Nc2ccc(F)nc2)CCCN1c1nc(Nc2cc(C3CC3)n[nH]2)c2cccn2n1
